# Experimental data published in patent publication US20250387410A1, “TREATMENT OF ANTI-VEGF REFRACTORY OPHTHALMIC RETINAL EYE CONDITIONS” (Eye Co Pty Ltd., priority 2022, published 2025).
# Entries after “also recorded” stand apart in the source; their conditions may differ.
# What was measured:
# [1] = tested on: Ccl2, Il-6, Il-8 expression in MIO-M1 cells; experiment: TNF-α stimulation of MIO-M1 cells, cytokine gene expression by QRT-PCR; format: cell-based, human; conditions: 1 μg/μl steroid, 1 ng/μl TNF-α, 12 h, versus TNF alone
# Text: The immortalised retinal cells used were as follows: MIO-M1 cells (Muller cell-derived; Müller 1 Moorefields, Institute of Ophthalmology, Dr A. Limb, Institute of Ophthalmology, University College, UK); ARPE19 (RPE-derived; ATCC CRL-2302, American Tissue Culture Collection, VA, USA); and 661W cells (photoreceptor-like derived; kindly gifted by Dr Muayyad R. Al-Ubaidi, Department of Cell Biology, University of Oklahoma Health Sciences Centre, Oklahoma City, OK, USA). Cells were authenticated and validated from Cell Bank Australia.
# IL-1β and TNF-α were administered to MIO-M1 cells to initiate an inflammatory response in order to test the anti-inflammatory properties of the selected corticosteroids. MIO-M1 cells were grown to a cell density of 50,000 cells per well in a 24 well plate using growth media and foetal bovine serum as described (Section 2.1.1). MIO-M1 cells were challenged with either 1 ng/μl of IL-1β or TNF-α (R&D Systems, MN, USA). Experimental wells were treated with either 1 μg/μl FA, TA or Dexamethasone. […]
# Following purification of RNA, cDNA was synthesized using the Bioline Tetro kit (Bioline, Australia) as per the manufacturer's instructions. Quantitative Real Time Polymerase Chain Reaction (QRT-PCR) was undertaken to profile gene expression changes in animal and cell culture samples. […] Data was analysed using the QuantStudio 12K Flex Software (Applied Biosystems, USA).
# [2] = tested on: Il-1b-stimulated MIO-M1 cells; experiment: Co-incubation with selective receptor antagonists in Il-1b-stimulated MIO-M1 cells; format: cell-based, human; conditions: stimulated Muller (MIO-M1) cells, receptor blockers
# Description: FIG. 3 Contribution of glucocorticoid and mineralocorticoid receptor signalling to the anti-inflammatory effect of FA in vitro.
# IL-1β and TNF-α were administered to MIO-M1 cells to initiate an inflammatory response in order to test the anti-inflammatory properties of the selected corticosteroids. MIO-M1 cells were grown to a cell density of 50,000 cells per well in a 24 well plate using growth media and foetal bovine serum as described (Section 2.1.1). MIO-M1 cells were challenged with either 1 ng/μl of IL-1β or TNF-α (R&D Systems, MN, USA). Experimental wells were treated with either 1 μg/μl FA, TA or Dexamethasone. Twelve hours post addition, growth medium was removed from each well and replaced with 860 μl of TRIzol (Thermo Fisher Scientific, MA, USA), agitated approximately 20 times and then placed in a clean 1.5 ml Eppendorf tube to extract ribonucleic acid (RNA).
# Following purification of RNA, cDNA was synthesized using the Bioline Tetro kit (Bioline, Australia) as per the manufacturer's instructions. Quantitative Real Time Polymerase Chain Reaction (QRT-PCR) was undertaken to profile gene expression changes in animal and cell culture samples. TaqMan hydrolysis probes (Applied Biosystems, USA) and Gene Expression Master Mix (Applied Biosystems, USA) were used. A clear 384 well plate (Applied Biosystems, USA) was used with each biological sample plated in duplicate. A reaction mixture per sample was set up and included 0.5 μl cDNA, 4 μl Rnase Free Water, 5 μl Gene Expression Master Mix and 0.5 μl Taqman Primer Probe (Thermo Fisher Scientific), as listed in Table 2.5. The amplification of each sample was undertaken using a QuantStudio 12K Flex QRT-PCR machine (Applied Biosystems, USA). GAPDH was used as the reference gene using the comparative cycle threshold (Ct) method (ΔΔCt), as it is known not to change expression following retinal photo-oxidative damage. Data was analysed using the QuantStudio 12K Flex Software (Applied Biosystems, USA).
# [3] = tested on: C57BL/6J mice, photo-oxidative damage (PD); experiment: Photo-oxidative damage (PD) model of retinal degeneration, intravitreal injection; format: in vivo, mouse; conditions: for ONL thickness (OCT): 1-2 mm and 2-3 mm from the optic nerve, about 1 mg/ml in vitreous; for ONL thickness (OCT) / a-wave and b-wave ERG responses: versus controls; for a-wave and b-wave ERG responses: scotopic; for IBA1+ macrophages in the outer retina: versus control
# Text: All experiments conducted were in accordance with the ARVO Statement for Use of Animals in Ophthalmic and Vision Research, and with approval from the ANU Animal Experimentation Ethics Committee (AEEC, protocol #A2014/56). C57BL/6J mice aged 60 post-natal days were used in this study. Animals were born, reared and held under dim light conditions (5 lux) prior to photo-oxidative damage.
# In vivo cross-sectional and fundus images of the mouse retina were acquired using Optical Coherence Tomography (OCT).
# Intravitreal injections were performed on C57BL/6J mice aged 60 post-natal days. Treatments included exposure to FA or TA dissolved in Suspension (comprised of 0.5% w/v carboxymethyl cellulose and 0.4% v/v Tween 80). The final concentration of drug in the vitreous chamber is estimated to be as 1 mg/ml.
# Age-matched C57BL/6J mice (60 post-natal days) were exposed to continuous 100K lux white LED light for 5 days with access to food and water ad libitum. During this time, 1% atropine sulphate (Minims 1% atropine sulphate eye drops; Bausch and Lomb, USA) was administered to both eyes twice daily to dilate the pupils. Animals were subsequently euthanised with carbon dioxide (CO2).
# Electroretinography (ERG) was used to assess the retinal function response of rodents to full-field flash stimuli under scotopic conditions. Dim-reared control and photo-oxidative damaged animals were used, using known methods.
# Animals were dark-adapted overnight before the commencement of ERG experiments. Animals were anaesthetised as previously described, and all retinal recordings were undertaken in a dark room with minimal red light source.
# Terminal deoxynucleotidyl transferase (Tdt) dUTP nick end labelling (TUNEL) is an established technique used to detect apoptotic and necrotic cells.
# The retina was evenly divided into 8 quadrants. Each quadrant was viewed using a confocal microscope (LSM 5, Zeiss, Germany) and TUNEL^+ and IBA1^+ cells were identified and counted. Data were graphed and analysed using Prism 6 software (GraphPad Software, CA, USA).
# [4] = 5 days PD, intravitreal, listed as Suspension+FA
smiles,measurement,setting,value
"CC(=O)OCC(=O)[C@@]1(O)CC[C@H]2[C@@H]3CCC4=CC(=O)CC[C@]4(C)[C@@]3(F)[C@@H](O)C[C@@]21C [FA, 9-α-Fluoro-11 β. 17 α, 21-trihydroxy-4-pregnene-3, 20 dione acetate]","Ccl2, Il-6, and Il-8 expression after TNF stimulation",[1],significantly reduced; also recorded: drastically reduced; also recorded: significantly inhibited
same,"receptor mediating the impact on expression of CCL2, IL-6 and IL-8",[2],mediated through the glucocorticoid receptor; also recorded: dependent on glucocorticoid receptor signalling
same,ONL thickness (OCT),"[3]; 5 days PD, intravitreal",significant preservation
same,ONL thickness (OCT),[3]; [4],significantly greater
same,a-wave and b-wave ERG responses,"[3]; 5 days PD, intravitreal",significantly larger
same,a-wave and b-wave ERG responses,[3]; [4],significantly higher
same,IBA1+ macrophages in the outer retina,"[3]; 5 days PD, intravitreal",significant reduction
same,IBA1+ macrophages in the outer retina,[3]; [4],significant decrease
same,TUNEL+ photoreceptors (outer retina),"[3]; 5 days PD, intravitreal, versus vehicle/controls",significantly fewer
same,photoreceptor survival in PD,"[3]; intravitreal injection, mice",improves photoreceptor survival
